Results taken from patent US11731942B1, “3-substituted quinolin-2-one compounds as antibacterial agents” (KING FAISAL UNIVERSITY, priority 2023, dated 2023).
≈ marks a conversion by molar mass, not a printed value. Read-outs that look alike come from different tables or passages of the source.

Columns and labels:
[1] = system: Bacillus subtilis MTCC 441; test: In vitro antibacterial activity (CLSI M07-A10 dilution), MIC; type: cell-based; conditions: MTCC441
[2] = system: Pseudomonas aeruginosa MTCC 741; test: as above; type: cell-based; conditions: MTCC741
[3] = system: Enterococcus faecium ATCC 51559 (VRE resistant); test: as above; type: cell-based
[4] = system: Enterococcus faecium ATCC 35667; test: as above; type: cell-based; conditions: ATCC35667
[5] = system: H37Rv type of M. tuberculosis strains; test: Anti-tubercular alamar blue microplate MIC; type: cell-based; conditions: 168 h, mycobacterium tuberculosis H37Rv strain, 7 days at 37° C., read-out: anti-mycobacterial activity (MIC)
[6] = system: Staphylococcus epidermidis; test: In vitro antibacterial activity (CLSI M07-A10 dilution), MIC; type: cell-based
[7] = system: Staphylococcus aureus ATCC BAA-1556 (MERSA resistant); test: as above; type: cell-based; conditions: ATCCBAA1556
[8] = system: Escherichia coli MTCC 443; test: as above; type: cell-based; conditions: MTCC443
[9] = system: Klebsiella pneumonia MTCC 618; test: as above; type: cell-based; conditions: Klebsiella pneumoniae, MTCC618
E. coli DNA Gyrase = target: T1, E. coli DNA Gyrase (Escherichia coli, UniProt P0AES4+P0AES6); test: Inspiralis DNA gyrase inhibition assay; type: biochemical
T1 construct: purchased Inspiralis
Protocol: Inhibitory potencies were investigated utilizing the Inspiralis assay on streptavidin-coated 96-well microtiter plates. First, the plates were rehydrated with buffer (20 mM Tris-HCl with pH 7.6, 0.01% w/v BSA, 0.05% v/v Tween 20, 137 mM NaCl) and the biotinylated oligonucleotide was then immobilized. After washing off the unbound oligonucleotide, the enzyme test was performed. The reaction volume of 30 μL in buffer (35 mM Tris×HCl with pH 7.5, 4 mM MgCl2, 24 mM KCl, 2 mM DTT, 1.8 mM spermidine, 1 mM ATP, 6.5% w/v glycerol, 0.1 mg/mL albumin) contained 1.5 U of DNA gyrase from E. coli, 0.75 μg of relaxed pNO1 plasmid, and 3 μL solution of the inhibitor in 10% DMSO and 0.008% Tween 20. Reaction solutions were incubated at 37° C. for 30 min. After that, the TF buffer (50 mM NaOAc with pH 5.0, 50 mM NaCl and 50 mM MgCl2) was added to terminate the enzymatic reaction. After additional incubation for 30 min at rt, during which biotinoligonucleotide-plasmid triplex was formed, the unbound plasmid was washed off using TF buffer and SybrGOLD in T10 buffer (10 mM Tris HCl with pH 8.0 and 1 mM EDTA) was added. The fluorescence was measured with a microplate reader (BioTek Synergy H4, excitation: 485 nm, emission: 535 nm). Initial screening was done at 100 or 10 μM concentration of inhibitors. […] GraphPad Prism software was used to calculate the IC50 values. […]

[10] = system: Staphylococcus aureus ATCC 29213; test: In vitro antibacterial activity (CLSI M07-A10 dilution), MIC; type: cell-based; conditions: ATCC29213

T1 sequence (P0AES4 whole entry, one chain of several): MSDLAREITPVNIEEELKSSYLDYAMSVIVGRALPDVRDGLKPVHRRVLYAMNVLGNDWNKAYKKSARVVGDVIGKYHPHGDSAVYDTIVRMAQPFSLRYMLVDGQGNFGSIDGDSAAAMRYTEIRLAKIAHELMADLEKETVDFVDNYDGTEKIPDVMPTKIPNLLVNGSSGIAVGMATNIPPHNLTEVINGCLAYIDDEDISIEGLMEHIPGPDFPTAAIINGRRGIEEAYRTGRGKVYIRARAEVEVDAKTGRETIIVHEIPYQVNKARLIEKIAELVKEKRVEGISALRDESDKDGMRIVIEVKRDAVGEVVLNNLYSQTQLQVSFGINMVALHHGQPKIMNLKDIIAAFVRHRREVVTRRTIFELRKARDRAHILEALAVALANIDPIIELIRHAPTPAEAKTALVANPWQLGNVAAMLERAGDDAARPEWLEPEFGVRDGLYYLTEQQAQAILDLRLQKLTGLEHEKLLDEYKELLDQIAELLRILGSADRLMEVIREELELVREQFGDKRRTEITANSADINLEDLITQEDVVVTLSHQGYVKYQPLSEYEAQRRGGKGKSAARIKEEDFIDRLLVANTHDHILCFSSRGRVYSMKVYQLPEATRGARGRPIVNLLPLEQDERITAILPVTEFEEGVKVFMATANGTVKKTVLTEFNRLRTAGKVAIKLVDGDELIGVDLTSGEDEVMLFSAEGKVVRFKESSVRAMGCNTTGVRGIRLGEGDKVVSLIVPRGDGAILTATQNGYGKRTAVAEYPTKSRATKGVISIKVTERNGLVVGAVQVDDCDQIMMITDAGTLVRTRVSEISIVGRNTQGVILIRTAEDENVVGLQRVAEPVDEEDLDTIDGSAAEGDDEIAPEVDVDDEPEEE

Row | Structure (SMILES) | MIC ([1]; Bacillus subtilis MTCC 441, read-out: MIC) | MIC ([2]; Pseudomonas aeruginosa MTCC 741, read-out: MIC) | MIC ([3]; Enterococcus faecium ATCC 51559 (VRE resistant), read-out: MIC) | MIC ([4]; Enterococcus faecium ATCC 35667, read-out: MIC) | MIC [5] | MIC ([6]; read-out: MIC) | MIC ([7]; Staphylococcus aureus ATCC BAA-1556 (MERSA resistant), read-out: MIC) | MIC ([8]; Escherichia coli MTCC 443, read-out: MIC) | MIC ([9]; Klebsiella pneumonia MTCC 618, read-out: MIC) | IC50 (E. coli DNA Gyrase) | MIC ([10]; Staphylococcus aureus ATCC 29213, read-out: MIC) | MIC ([1]; Bacillus subtilis) | MIC ([2]; Pseudomonas aeruginosa) | MIC ([3]; Enterococcus faecium) | MIC ([4]; Enterococcus faecium) | MIC [6] | MIC ([7]; Staphylococcus aureus) | MIC ([8]; Escherichia coli) | MIC [9] | MIC ([10]; Staphylococcus aureus)
1 | CCCCCN(C)Cc1cc(C(=O)O)ccc1/C=C/C(=O)c1cc2cc(F)cc(NC)c2[nH]c1=O [Compound 7, (E)-4-(3-(6-fluoro-8-(methylamino)-2-oxo-1,2-dihydroquinolin-3-yl)-3-oxoprop-1-en-1-yl)-3-((methyl(pentyl)amino)methyl)benzoic acid] | 0.25 µg/mL (≈ 0.521 µM) | 0.25 µg/mL (≈ 0.521 µM) | 0.25 µg/mL (≈ 0.521 µM) | 0.25 µg/mL (≈ 0.521 µM) | 4 µg/mL (≈ 8.34 µM) | 0.5 µg/mL (≈ 1.04 µM) | 0.5 µg/mL (≈ 1.04 µM) | 1 µg/mL (≈ 2.09 µM) | 0.5 µg/mL (≈ 1.04 µM) | 12 nM | 0.5 µg/mL (≈ 1.04 µM) | – | – | – | – | – | – | – | – | –
2 | CN[C@H](CC(C)C)C(=O)N[C@H]1C(=O)N[C@@H](CC(N)=O)C(=O)N[C@H]2C(=O)N[C@H]3C(=O)N[C@H](C(=O)N[C@H](C(=O)O)c4cc(O)cc(O)c4-c4cc3ccc4O)[C@H](O)c3ccc(c(Cl)c3)Oc3cc2cc(c3O[C@@H]2O[C@H](CO)[C@@H](O)[C@H](O)[C@H]2O[C@H]2C[C@](C)(N)[C@H](O)[C@H](C)O2)Oc2ccc(cc2Cl)[C@H]1O [Vancomycin, reference compound] | – | – | – | – | – | – | – | – | – | – | – | 0.5 µg/mL (≈ 0.345 µM) | > 128 µg/mL | > 128 µg/mL | 0.5 µg/mL (≈ 0.345 µM) | 1 µg/mL (≈ 0.69 µM) | 1 µg/mL (≈ 0.69 µM) | > 128 µg/mL | > 128 µg/mL | 1 µg/mL (≈ 0.69 µM)
